The conditions of this data set: 101.33 kPa, Liquid, Vibrating tube method.

Numbers after ± are expanded uncertainties.

This passage reports mass density results from the NIST ThermoML archive (doi:10.1016/j.jct.2018.02.001).

By mass density is commonly meant mass per unit of volume. Regarding `CCCCCC[n+]1ccn(CC)c1.[Br-]` [1-ethyl-3-hexyl-1H-imidazolium bromide], the mass density turned out to be 1197.06 ± 11 kg/m3 (293.15 K); 1193.59 ± 11 kg/m3 (298.15 K); 1190.1 ± 11 kg/m3 (303.15 K); 1186.58 ± 11 kg/m3 (308.15 K); 1183.02 ± 11 kg/m3 (313.15 K); 1179.46 ± 11 kg/m3 (318.15 K). The mass density (323.15 K) stood at 1175.88 ± 11 kg/m3.
As for `CCCCCCCC[n+]1ccn(CC)c1.[Br-]` [1-ethyl-3-octyl-1H-imidazolium bromide], the mass density was 1148.89 ± 1.9 kg/m3 (293.15 K); 1145.43 ± 1.9 kg/m3 (298.15 K); 1141.74 ± 1.8 kg/m3 (303.15 K); 1138.13 ± 1.8 kg/m3 (308.15 K); 1134.69 ± 1.8 kg/m3 (313.15 K); 1131.07 ± 1.8 kg/m3 (318.15 K). Further, the mass density (323.15 K) is recorded as 1127.5 ± 1.8 kg/m3.
With `CCCCCCCCCCCC[n+]1ccn(CC)c1.[Br-]` [3-dodecyl-1-ethyl-1H-imidazolium bromide], the mass density amounted to 1084.31 ± 1.5 kg/m3 (293.15 K); 1080.97 ± 1.5 kg/m3 (298.15 K); 1077.53 ± 1.5 kg/m3 (303.15 K); 1074.03 ± 1.5 kg/m3 (308.15 K); 1070.48 ± 1.5 kg/m3 (313.15 K); 1066.96 ± 1.5 kg/m3 (318.15 K). In addition, the mass density (323.15 K) is reported as 1063.43 ± 1.5 kg/m3.
